# Test results from patent US9011880B2, “Compounds and methods for treating cancer” (IGF Oncology, LLC, priority 2003, dated 2015).
# Where two headings read alike, the source gives them in different places.
# Experiments:
# LNCAP cells [1] = experiment: LNCAP proliferation in vitro (Example 5, cell counting kit-8)
# Experimental: LNCAP cells were plated in a 96-well plate at 3,000 cells per well in RPMI medium supplemented with 10% fetal bovine serum (FBS). After incubation overnight, the medium in the wells was replaced with 100 μl per well of RPMI supplemented with 0.1% FBS. […] After incubation for 4 days, cell proliferation was assayed with the cell counting kit-8 (Dojindo Molecular Technologies, Gaithersburg, Md.).
# LNCAP tumors = format: in vivo, mouse; conditions: days 0, 4, 8, 18, 22 and 26
# Experimental: LNCAP testing. Eight-week old athymic male mice (nu/nu) were injected subcutaneously in the thigh with 1 million LNCAP cells in serum-free medium. Tumors were allowed to grow until they reached an average size of 100 mm^3. […] A fifth group of mice was untreated controls.
# [2] = IGF-MTX- and MTX-related toxicity in mice (ill effects, body weight); conditions: mice implanted with MCF7-L cells, n = 5/group
# Experimental: (§1) MCF7 cells (human breast adenocarcinoma cell line) were grown in Eagle's minimal essential medium supplemented with 0.1 mg/ml insulin and 10% FCS. The estrogen-dependent MCF7-L cell line was a gift from Deepali Sachdev of the University of Minnesota. MCF7-L cells were grown in modified IMEM medium (Invitrogen, Carlsbad, Calif., USA) supplemented with 0.1 mg/ml insulin. LNCaP cells (metastatic human prostatic adenocarcinoma) were grown in RPMI supplemented with glutamine and 10% FCS (Invitrogen, Carlsbad, Calif., USA). Cells were grown at 37° C. in a 5% CO2 humidified atmosphere. In each case, cells were grown to approximately two-thirds confluence, harvested by trypsinization, washed with rich medium and then washed twice with PBS and resuspended in phosphate buffered saline in BD matrigel matrix (Becton Dickinson, Franklin Lakes, N.J., USA). Cells were injected intradermally in mice on the back. An estrogen pellet (0.5 mg estradiol, 60-day release, Innovative Research of America, Sarasota, Fla., USA) was implanted subcutaneously between the shoulder blades two days before implanting MCF7 and MCF7-L cells. MCF7 and MCF7-L cells were implanted in 8-week-old female nu/nu mice. LNCaP cells were implanted in 8-week-old male nu/nu mice. […] MTX was dissolved in PBS. Untreated vehicle controls received 2 mM HCl, 1% glycerol. Drug was administered intravenously by tail-vein injection in a volume of 12.5 μl per gram mouse weight. All studies were approved by the University of Minnesota Animal Care and Use Committee and conformed to relevant ethical guidelines.
# breast cancer cells [3] = conditions: administered with insulin; cited from earlier work
# MCF7 tumors = experiment: MCF7 xenograft tumor growth in nu/nu mice; format: in vivo, mouse; conditions: 40 nmol/g intravenous, days 0, 4 and 8; 12 days of observation
# Experimental: as §1
# Three in vivo studies were performed to assess the targeting of MTX with long-R3-IGF-1. In the initial preliminary study, breast cancer MCF7 cells were implanted intradermally in the backs of nude mice.
# breast cancer cells [4] = conditions: cells incubated with insulin; cited from earlier work
# FSAII tumors = experiment: FSAII tumor growth in vivo in mice; parameters: species or system mouse; conditions: intraperitoneally, days 0, 2 and 5
# Experimental: FSAII testing. Six-week old female mice were injected subcutaneously in the thigh with 200,000 FSAII cells each in serum-free medium. Tumors were allowed to grow until they reached an average volume of 100 mm^3 (calculated as length×breadth^2). At that time, treatment was initiated. […] A fifth group of mice was untreated controls. Each group contained five mice. Mice were treated on days 0, 2, and 5. Tumor growth was measured every second day.
# LNCAP cells [5] = experiment: In vitro proliferation assay, LNCaP (Example 8); format: cell-based, human
# Experimental: LNCaP, MCF7 and MCF7-L cell lines were plated, respectively, in a 96-well plate at 5,000 cells per well in RPMI+glutamine+10% FCS medium in 100 μl. After 24 hours, 100 μl fresh medium was added containing no drug (control), IGF-MTX or MTX at the indicated concentration.
# MCF7-L tumors = experiment: MCF7-L xenograft tumor growth in nu/nu mice; format: in vivo, mouse; conditions: day 22; IGF-MTX 10 nmol of MTX/g or free MTX 40 nmol/g, tail vein, days 0 and 5
# Experimental: as §1, with “Drug was administered intravenously by tail-vein injection in a volume of 12.5 μl per gram mouse weight. All studies were approved by the University of Minnesota Animal Care and Use Committee and conformed to relevant ethical guidelines.” left out
# [6] = humans, cited from earlier work
# [7] = system: mouse fibrosarcoma cell line FSAII; experiment: In vitro growth inhibition of FSAII cells (cell-counting kit-8); format: cell-based; conditions: minimal medium, 2 nM to 2 μM, 72 hours
# Experimental: In vitro growth inhibition. […] The cells were grown in a 5% CO2 atmosphere at 37° C. in 100 cm^2 plastic tissue culture dishes (20 ml medium). Cells were passed every 4-6 days and seeded at 2×10^6 cells per plate. Cells were harvested by washing once in Hank's balanced salt solution, and then digesting with 3 ml of trypsin-EDTA for 3-10 minutes until cells had detached. Trypsinization was stopped by adding rich medium. The harvested cells were washed by centrifugation and resuspended in rich medium, and then plated in a 96-well plate at 12,000 cells per well in rich medium. Plates were incubated in the rich medium 16 hours and then transferred to minimal medium (100 μl/well), which lacked serum and thus lacked insulin and IGF and other growth factors. Minimal medium was RPMI supplemented with 10 μg/ml transferrin (iron-loaded) and 200 μg/ml bovine serum albumin. […] Each condition was tested in triplicate. After 72 hours incubation at 37° C., cell proliferation was assayed by the cell-counting kit-8, based on tetrazolium dye reduction, similar to the MTT assay (Dojindo Molecular Technologies, Gaithersburg, Md.).
# [8] = low dose 15 μmoles/kg methotrexate
compound,measurement,setting,value
CN(Cc1cnc2nc(N)nc(N)c2n1)c1ccc(C(=O)N[C@@H](CCC(=O)O)C(=O)O)cc1 [methotrexate],Cell number (relative units),"LNCAP cells [1]; Minimal med. (0.1% FBS), MTX conc. 2 nM",.653 ± .046 relative units
same,Cell number (relative units),"LNCAP cells [1]; Minimal med. (0.1% FBS), MTX conc. 8 nM",.737 ± .043 relative units
same,Cell number (relative units),"LNCAP cells [1]; Minimal med. (0.1% FBS), MTX conc. 32 nM",.994 ± .226 relative units
same,Cell number (relative units),"LNCAP cells [1]; Minimal med. (0.1% FBS), MTX conc. 125 nM",.835 ± .048 relative units
same,Cell number (relative units),"LNCAP cells [1]; Minimal med. (0.1% FBS), MTX conc. 500 nM",.706 ± .051 relative units
same,Cell number (relative units),"LNCAP cells [1]; Minimal med. (0.1% FBS), MTX conc. 2000 nM",0.418 ± .026 relative units
same,Cell number (relative units),"LNCAP cells [1]; Rich medium (10% FBS), MTX conc. 2 nM",0.724 ± .015 relative units
same,Cell number (relative units),"LNCAP cells [1]; Rich medium (10% FBS), MTX conc. 8 nM",0.596 ± .071 relative units
same,Cell number (relative units),"LNCAP cells [1]; Rich medium (10% FBS), MTX conc. 32 nM",1.017 ± .033 relative units
same,Cell number (relative units),"LNCAP cells [1]; Rich medium (10% FBS), MTX conc. 125 nM",0.223 ± .012 relative units
same,Cell number (relative units),"LNCAP cells [1]; Rich medium (10% FBS), MTX conc. 500 nM",0.163 ± .009 relative units
same,minimal inhibitory concentration,LNCAP cells [1]; minimal medium containing 0.1% serum,about 2000 nM
same,minimal inhibitory concentration,LNCAP cells [1]; rich medium containing 10% serum,about 125 nM
same,effect on LNCAP tumor growth,LNCAP tumors; high dose 40 μmoles/kg methotrexate,appeared to have no effect
same,effect on LNCAP tumor growth,LNCAP tumors; [8],appeared to have no effect
same,"Average weight of mice, Day 4",[2],19.5 g
same,"Average weight of mice, Day 20",[2],20.8 g
same,"Average weight of mice, Day 0",[2]; measured immediately before treatment,19.2 g
same,factor of lower methotrexate concentration for the same percent cell killing than methotrexate alone,breast cancer cells [3],10^4
same,MCF7 tumor growth,MCF7 tumors,tumors continued to grow
same,stimulation of uptake,breast cancer cells [4],50%
same,effect on FSAII tumor growth,FSAII tumors; high dose 60 μmoles/kg methotrexate,Neither the high or low dose of methotrexate had any apparent effect
same,effect on FSAII tumor growth,FSAII tumors; [8],Neither the high or low dose of methotrexate had any apparent effect
same,inhibition of proliferation at highest tested concentration,LNCAP cells [5]; 2000 nM,significantly greater inhibition than IGF-MTX
same,inhibition of proliferation compared to untreated control cells,LNCAP cells [5]; LNCaP,inhibited proliferation of LNCaP cells
same,IC50,"LNCAP cells [5]; free MTX, LNCaP, RPMI + 10% FCS, 48 hours with drug, IGF-MTX as concentration of MTX groups",~0.4 µM
same,MCF7-L tumor growth inhibition,MCF7-L tumors,inhibited about equally
same,maximum safe dosage,[6]; cumulative per 3 weeks,about 500 micromoles per meter squared per 3 weeks
same,minimum effective dosage,[6]; lowest dosage usually used,about 130 micromoles per meter squared per 3 weeks
same,inhibition of FSAII proliferation,[7],inhibited FSAII proliferation
